From patent US9181234B2, “Antibacterial compounds” (priority 2010, dated 2015)
≈ marks a conversion by molar mass, not a printed value.

Tests used:
[1] = tested on: Staphylococcus aureus (Isolate ID ATCC 29213); assay: Antibacterial activity, MIC, S. aureus; format: cell-based; details: Staphylococcus aureus, ATCC29213, Gram positive strain; broth microdilution or agar dilution
Method: (§1) Bacterial Assay: Determination of Antibacterial Activity
(§2) Compounds of the invention were tested for antimicrobial activity by susceptibility testing in liquid or on solid media. MICs for compounds against each strain were determined by the broth microdilution or agar dilution method according to the guidelines of the Clinical Laboratories and Standards Institute, formerly the National Committee for Clinical Laboratory Standards (Clinical Laboratories and Standards Institute. Methods for Dilution Antimicrobial Susceptibility Tests for Bacteria That Grow Aerobically; Approved Standard—Seventh Edition. Document M7-A7. CLSI, Wayne, Pa., 2006; Clinical Laboratories and Standards Institute. The gram positive bacterial strains tested include S. aureus (Staphylococcus aureus (Isolate ID ATCC 29213)), E. faecalis (Enterococcus faecalis (Isolate ID ATCC 29212)) and S. pyogenes (Streptococcus pyogenes (Isolate ID ATCC 51339)). The gram negative bacterial strains tested include H. influenzae (Haemophilus influenzae (Isolate ID ATCC 49247))

[2] = tested on: Streptococcus pyogenes (Isolate ID ATCC 51339); assay: Antibacterial activity, MIC, S. pyogenes; format: cell-based; details: Streptococcus pyogenes, ATCC51339, Gram positive strain; broth microdilution or agar dilution
Method: as §1, §2

[3] = tested on: Haemophilus influenzae (Isolate ID ATCC 49247); assay: Antibacterial activity, MIC, H. influenzae; format: cell-based; details: Haemophilus influenzae, ATCC49247; Gram negative strain; broth microdilution or agar dilution
Method: as §1, §2

physchem = details: for solubility at 24 h: kinetic from dmso stock
Method: Turbimetric Assay: Determination of Solubility
The solubility of the compounds was measured using a turbidimetric method. A series of doubling dilutions of compounds were prepared in neat dimethyl sulfoxide (DMSO). 5 μl samples were diluted twenty-fold into 95 μl volumes of 100 mM citrate buffer (pH 4), phosphate buffered saline (PBS, pH 7.4) or carbonate-bicarbonate buffer (pH 9) in microtitre assay plates and allowed to reach equilibrium at room temperature for 24 hours. The absorbance within each well of the plate was read spectrophotometrically at a wavelength of 620 nm. A precipitate forms when the maximum aqueous solubility level is reached. The value quoted is the highest concentration where the compound was in solution i.e. where no measurable precipitate was present. […] ND=not determined

[4] = pH 7.4, aqueous buffer, Max Solubility
[5] = pH 7.4, aqueous buffer, Solubility (pH 7.4)
[6] = pH 7.4, aqueous buffer, Solubility Range
[7] = pH 7.4, aqueous buffer, Solubility Range (maximum solubility)
[8] = pH 9, aqueous buffer, Max Solubility
[9] = pH 9, aqueous buffer, Solubility Range (maximum solubility)

SMILES | MIC [1] | MIC [2] | MIC [3] | solubility at 24 h (physchem; [4]) | solubility at 24 h (physchem; [5]) | solubility at 24 h (physchem; [6]) | solubility at 24 h (physchem; [7]) | solubility at 24 h (physchem; [8]) | solubility at 24 h (physchem; [9]) | Solubility (pH 7.4) (physchem; 24 h, pH 7.4) | solubility at 24 h (physchem; pH 4, aqueous buffer, Max Solubility) | solubility at 24 h (physchem; pH 4, aqueous buffer, Solubility Range (maximum solubility))
CCNC(=O)Nc1nc2cc(-c3cnc(N4CCC(C)(C(=O)O)CC4)nc3)cc(COC)c2s1 [Compound 202, 1-[5-[2-(Ethylcarbamoylamino)-7-(methoxymethyl)-1,3-benzothiazol-5-yl]pyrimidin-2-yl]-4-methyl-piperidine-4-carboxylic acid] | 1 to 16 µg/mL (≈ 2.06 to 33 µM) | 1 to 16 µg/mL (≈ 2.06 to 33 µM) | 0.25 to 1 µg/mL (≈ 0.516 to 2.06 µM) | ≥ 800 µg/mL | ≥ 800 µg/mL | > 800 µg/mL | > 800 µg/mL | – | – | – | – | –
CCNC(=O)Nc1nc2cc(-c3cnc(N4CCC(CC)(C(=O)O)CC4)nc3)cc(COC)c2s1 [Compound 203, 4-Ethyl-1-[5-[2-(ethylcarbamoylamino)-7-(methoxymethyl)-1,3-benzothiazol-5-yl]pyrimidin-2-yl]piperidine-4-carboxylic acid] | 1 to 16 µg/mL (≈ 2.01 to 32.1 µM) | 1 to 16 µg/mL (≈ 2.01 to 32.1 µM) | 1 to 16 µg/mL (≈ 2.01 to 32.1 µM) | – | 100 µg/mL (≈ 201 µM) | 12.5 to 400 µg/mL (≈ 25.1 to 802 µM) | – | ≥ 800 µg/mL | > 800 µg/mL | – | – | –
CCNC(=O)Nc1nc2cc(-c3cnc(N4CCC(C)(C(=O)O)CC4)nc3)cc(/C=N/OCC)c2s1 [Compound 204] | 0.25 to 1 µg/mL (≈ 0.489 to 1.95 µM) | 0.25 to 1 µg/mL (≈ 0.489 to 1.95 µM) | 1 to 16 µg/mL (≈ 1.95 to 31.3 µM) | ≥ 800 µg/mL | ≥ 800 µg/mL | > 800 µg/mL | > 800 µg/mL | – | – | – | – | –
CCNC(=O)Nc1nc2cc(-c3cnc(N4CCC(C)(C(=O)O)CC4)nc3)cc(-c3ccc(CN4CCOCC4)cn3)c2s1 [Compound 205] | 0.25 to 1 µg/mL (≈ 0.405 to 1.62 µM) | 0.25 to 1 µg/mL (≈ 0.405 to 1.62 µM) | 1 to 16 µg/mL (≈ 1.62 to 25.9 µM) | – | 400 µg/mL (≈ 649 µM) | 400 to 800 µg/mL (≈ 649 to 1300 µM) | – | ≥ 800 µg/mL | > 800 µg/mL | – | – | –
CCNC(=O)Nc1nc2cc(-c3cnc(N4CCC(CC)(C(=O)O)C4)nc3)cc(-c3ccccn3)c2s1 (centres unmarked) [Compound 206] | 0.25 to 1 µg/mL (≈ 0.483 to 1.93 µM) | ≤ 0.25 µg/mL | 1 to 16 µg/mL (≈ 1.93 to 30.9 µM) | ≥ 800 µg/mL | ≥ 800 µg/mL | > 800 µg/mL | > 800 µg/mL | – | – | – | – | –
CCNC(=O)Nc1nc2cc(-c3cnc(N4CCC(CC)(C(=O)O)CC4)nc3)cc(C(=O)CC)c2s1 [Compound 207, 4-Ethyl-1-(5-(2-(3-ethylureido)-7-propionylbenzo[d]thiazol-5-yl)pyrimidin-2-yl)piperidine-4-carboxylic acid] | 0.25 to 1 µg/mL (≈ 0.49 to 1.96 µM) | 0.25 to 1 µg/mL (≈ 0.49 to 1.96 µM) | 1 to 16 µg/mL (≈ 1.96 to 31.3 µM) | – | 100 µg/mL (≈ 196 µM) | 12.5 to 400 µg/mL (≈ 24.5 to 783 µM) | – | 400 µg/mL (≈ 783 µM) | 400 to 800 µg/mL (≈ 783 to 1570 µM) | – | – | –
CCNC(=O)Nc1nc2cc(-c3cnc(N4CCC(C)(C(=O)O)CC4)nc3)c(OC)c(Br)c2s1 [Compound 208, 1-[5-[7-bromo-2-(ethylcarbamoylamino)-6-methoxy-1,3-benzothiazol-5-yl]pyrimidin-2-yl]-4-methyl-piperidine-4-carboxylic acid] | 0.25 to 1 µg/mL (≈ 0.455 to 1.82 µM) | 1 to 16 µg/mL (≈ 1.82 to 29.1 µM) | 1 to 16 µg/mL (≈ 1.82 to 29.1 µM) | – | 100 µg/mL (≈ 182 µM) | 12.5 to 400 µg/mL (≈ 22.7 to 728 µM) | – | 200 µg/mL (≈ 364 µM) | 12.5 to 400 µg/mL (≈ 22.7 to 728 µM) | – | – | –
CCNC(=O)Nc1nc2cc(-c3csc(N4CCC(CC)(C(=O)O)CC4)n3)cc(-c3ccccn3)c2s1 [Compound 209, 4-Ethyl-1-[4-[2-(ethylcarbamoylamino)-7-(2-pyridyl)-1,3-benzothiazol-5-yl]thiazol-2-yl]piperidine-4-carboxylic acid] | 0.25 to 1 µg/mL (≈ 0.466 to 1.86 µM) | 0.25 to 1 µg/mL (≈ 0.466 to 1.86 µM) | 1 to 16 µg/mL (≈ 1.86 to 29.8 µM) | – | 200 µg/mL (≈ 373 µM) | 12.5 to 400 µg/mL (≈ 23.3 to 745 µM) | – | 400 µg/mL (≈ 745 µM) | 400 to 800 µg/mL (≈ 745 to 1490 µM) | – | – | –
CCNC(=O)Nc1nc2cc(-c3cnc(N4CCC(CC)(C(=O)O)CC4)nc3)nc(-c3ccccn3)c2s1 [Compound 210] | 0.25 to 1 µg/mL (≈ 0.469 to 1.88 µM) | ≤ 0.25 µg/mL | 1 to 16 µg/mL (≈ 1.88 to 30 µM) | 200 µg/mL (≈ 375 µM) | 200 µg/mL (≈ 375 µM) | 12.5 to 400 µg/mL (≈ 23.5 to 751 µM) | 12.5 to 400 µg/mL (≈ 23.5 to 751 µM) | – | – | – | – | –
CCNC(=O)Nc1nc2cc(-c3cnc(N4CCC(CC)(C(=O)O)CC4)nc3)cc(/C(CC)=N\OC)c2s1 [Compound 211, (Z)-4-Ethyl-1-(5-(2-(3-ethylureido)-7-(1-(methoxyimino)propyl)benzo[d]thiazol-5-yl)pyrimidin-2-yl)piperidine-4-carboxylic acid] | 0.25 to 1 µg/mL (≈ 0.463 to 1.85 µM) | 0.25 to 1 µg/mL (≈ 0.463 to 1.85 µM) | 1 to 16 µg/mL (≈ 1.85 to 29.6 µM) | ≥ 800 µg/mL | – | – | > 800 µg/mL | – | – | ≧800 μg/mL | – | –
CCNC(=O)Nc1nc2cc(-c3cnc(N4CCC(C)(C(=O)O)CC4)nc3)cc(-c3noc(C)n3)c2s1 [Compound 213, 1-[5-[2-(Ethylcarbamoylamino)-7-(5-methyl-1,2,4-oxadiazol-3-yl)-1,3-benzothiazol-5-yl]pyrimidin-2-yl]-4-methyl-piperidine-4-carboxylic acid] | 0.25 to 1 µg/mL (≈ 0.478 to 1.91 µM) | 0.25 to 1 µg/mL (≈ 0.478 to 1.91 µM) | 0.25 to 1 µg/mL (≈ 0.478 to 1.91 µM) | – | 400 µg/mL (≈ 765 µM) | 400 to 800 µg/mL (≈ 765 to 1530 µM) | – | ≥ 800 µg/mL | > 800 µg/mL | – | – | –
CCNC(=O)Nc1nc2cc(-c3cnc(N4CCC(C)(C(=O)O)CC4)nc3C)cc(-c3ccccn3)c2s1 [Compound 214] | 0.25 to 1 µg/mL (≈ 0.47 to 1.88 µM) | 0.25 to 1 µg/mL (≈ 0.47 to 1.88 µM) | 1 to 16 µg/mL (≈ 1.88 to 30.1 µM) | – | 400 µg/mL (≈ 752 µM) | 400 to 800 µg/mL (≈ 752 to 1500 µM) | – | ≥ 800 µg/mL | > 800 µg/mL | – | – | –
CCNC(=O)Nc1nc2cc(-c3cnc(N4CCC(C)(C(=O)O)CC4)nc3)cc(Br)c2s1 [Compound 215] | ≤ 0.25 µg/mL | 0.25 to 1 µg/mL (≈ 0.481 to 1.93 µM) | 1 to 16 µg/mL (≈ 1.93 to 30.8 µM) | – | 400 µg/mL (≈ 770 µM) | 400 to 800 µg/mL (≈ 770 to 1540 µM) | – | ≥ 800 µg/mL | > 800 µg/mL | – | – | –
CCNC(=O)Nc1nc2cc(-c3cnc(NC4COC(C)(C(=O)OCC)OC4)nc3)cc(-c3ccccn3)c2s1 (centres unmarked) [Compound 216] | ≤ 0.25 µg/mL | 1 to 16 µg/mL (≈ 1.77 to 28.4 µM) | 1 to 16 µg/mL (≈ 1.77 to 28.4 µM) | – | 25 µg/mL (≈ 44.4 µM) | 12.5 to 400 µg/mL (≈ 22.2 to 710 µM) | – | – | – | – | 50 µg/mL (≈ 88.7 µM) | 12.5 to 400 µg/mL (≈ 22.2 to 710 µM)
CCNC(=O)Nc1nc2cc(-c3cnc(N4CCC(C)(C(=O)O)CC4)nc3)cc(-c3ccc(CN4CCC(F)(F)CC4)cn3)c2s1 [Compound 217] | ≤ 0.25 µg/mL | 0.25 to 1 µg/mL (≈ 0.384 to 1.54 µM) | 1 to 16 µg/mL (≈ 1.54 to 24.6 µM) | – | 400 µg/mL (≈ 615 µM) | 400 to 800 µg/mL (≈ 615 to 1230 µM) | – | ≥ 800 µg/mL | > 800 µg/mL | – | – | –
CCNC(=O)Nc1nc2cc(-c3cnc(N(C)C4CCC(C)(C(=O)O)CC4)nc3)cc(-c3ccccn3)c2s1 (centres unmarked) [Compound 218] | ≤ 0.25 µg/mL | ≤ 0.25 µg/mL | 1 to 16 µg/mL (≈ 1.83 to 29.3 µM) | – | 200 µg/mL (≈ 367 µM) | 12.5 to 400 µg/mL (≈ 22.9 to 733 µM) | – | ≥ 800 µg/mL | > 800 µg/mL | – | – | –
CCNC(=O)Nc1nc2cc(-c3cnc(N4CCC5(CC4)CC(CC)(C(=O)O)C5)nc3)cc(-c3ccccn3)c2s1 [Compound 219] | ≤ 0.25 µg/mL | 0.25 to 1 µg/mL (≈ 0.437 to 1.75 µM) | 1 to 16 µg/mL (≈ 1.75 to 28 µM) | ≥ 800 µg/mL | ≥ 800 µg/mL | > 800 µg/mL | > 800 µg/mL | – | – | – | – | –
CCNC(=O)Nc1nc2cc(-c3cnc(N4CCC(C)(C(=O)O)CC4)nc3OC)cc(-c3ccccn3)c2s1 [Compound 220] | ≤ 0.25 µg/mL | ≤ 0.25 µg/mL | 1 to 16 µg/mL (≈ 1.83 to 29.2 µM) | – | 50 µg/mL (≈ 91.3 µM) | 12.5 to 400 µg/mL (≈ 22.8 to 730 µM) | – | 400 µg/mL (≈ 730 µM) | 400 to 800 µg/mL (≈ 730 to 1460 µM) | – | – | –
